Converted amounts (≈) assume the structure as drawn. Where two headings read alike, the source gives them in different places.
How the values were obtained:
M.tb strain H37Rv [1] = assay: MIC against M.tb H37Rv under aerobic (replicating; MABA) conditions; assay type: cell-based, Mycobacterium tuberculosis; details: for MIC: Mycobacterium tuberculosis; for MIC MABA: MIC90, Table 1
[2] = system: Vero green monkey-derived epithelial kidney cells; assay: Mammalian cytotoxicity in Vero cells; assay type: cell-based; details: for IC50: Chlorocebus sabaeus
M.tb strain H37Rv [3] = assay: MIC against M.tb H37Rv under non-replicating (LORA) conditions; details: for MIC LORA: MIC90, Table 1; for MIC (µg/mL) LORA: MIC90, Table 2
[4] = MIC90, Table 1, read-out: MIC MABA
[5] = MIC90, Table 2, read-out: MIC (µg/mL) MABA

Molecule	MIC (M.tb strain H37Rv [1]; [4]) [µg/mL]	IC50 ([2]; Table 1) [µg/mL]	melting point [°C]	MIC LORA (M.tb strain H37Rv [3]) [µg/mL]	MIC (M.tb strain H37Rv [1]; [5]) [µg/mL]	IC50 ([2]; Table 2) [µg/mL]	MIC (µg/mL) LORA (M.tb strain H37Rv [3]) [µg/mL]	MIC MABA (M.tb strain H37Rv [1]) [µg/mL]	IC50 VERO ([2]; Table 1) [µg/mL]
COc1ccc(N2CCN(C)CC2)c2c1CCN(C(=O)c1ccc(-c3ccc(Cl)cc3C)cn1)C2 [Compound 22, (5-(4-Chloro-2-methylphenyl)pyridin-2-yl)(5-methoxy-8-(4-methylpiperazin-1-yl)-3,4-dihydroisoquinolin-2(1H)-yl)methanone]	8.9 (≈ 18.1 µM)	22 (≈ 44.8 µM)	125 to 128	8.0 (≈ 16.3 µM)	–	–	–	–	–
Cc1cc(Cl)ccc1-c1ccc(C(=O)N2CCc3cccc(N4CCN(C)CC4)c3C2)nc1 [Compound 18, (5-(4-Chloro-2-methylphenyl)pyridin-2-yl)(8-(4-methylpiperazin-1-yl)-3,4-dihydroisoquinolin-2(1H)-yl)methanone]	11 (≈ 23.9 µM)	20 (≈ 43.4 µM)	132 to 135	13 (≈ 28.2 µM)	–	–	–	–	–
CN1CCN(c2cccc3c2CN(C(=O)c2ccc(-c4cccc(Cl)c4)cn2)CC3)CC1 [Compound 20, (5-(3-Chlorophenyl)pyridin-2-yl)(8-(4-methylpiperazin-1-yl)-3,4-dihydroisoquinolin-2(1H)-yl)methanone]	15 (≈ 33.6 µM)	24 (≈ 53.7 µM)	105 to 108	11.3 (≈ 25.3 µM)	–	–	–	–	–
CSc1ccc(N2CCN(C)CC2)c2c1CCN(C(=O)Nc1ccc(-c3ccc(Cl)cc3C)cn1)C2 [Compound 40, N-(5-(4-Chloro-2-methylphenyl)pyridin-2-yl)-8-(4-methylpiperazin-1-yl)-5-(methylthio)-3,4-dihydroisoquinoline-2(1H)-carboxamide]	1.9 (≈ 3.64 µM)	13 (≈ 24.9 µM)	111 to 114	2.0 (≈ 3.83 µM)	–	–	–	–	–
CN1CCN(c2cccc3c2CN(C(=O)Cc2ccc(-c4ccc(OC(F)(F)F)cc4)cn2)CC3)CC1 [Compound 46, 1-(8-(4-Methylpiperazin-1-yl)-3,4-dihydroisoquinolin-2(1H)-yl)-2-(5-(4-(trifluoromethoxy)phenyl)pyridin-2-yl)ethan-1-one]	13.7 (≈ 26.8 µM)	20 (≈ 39.2 µM)	–	12.4 (≈ 24.3 µM)	–	–	–	–	–
CN1CCN(c2ccc(F)c3c2CN(Cc2ccc(-c4ccc(F)cc4F)cn2)CC3)CC1 [Compound 16, 2-((5-(2,4-Difluorophenyl)pyridin-2-yl)methyl)-5-fluoro-8-(4-methylpiperazin-1-yl)-1,2,3,4-tetrahydroisoquinoline]	15 (≈ 33.1 µM)	22 (≈ 48.6 µM)	–	21 (≈ 46.4 µM)	–	–	–	–	–
COc1ccc(N2CCN(C)CC2)c2c1CCN(C(=O)c1ccc(-c3ccc(Cl)cc3)cn1)C2 [Compound 21, (5-(4-Chlorophenyl)pyridin-2-yl)(5-methoxy-8-(4-methylpiperazin-1-yl)-3,4-dihydroisoquinolin-2(1H)-yl)methanone]	13 (≈ 27.3 µM)	11 (≈ 23.1 µM)	124 to 127	12 (≈ 25.2 µM)	–	–	–	–	–
Cc1ccc(-c2ccc(NC(=O)N3CCc4c(Cc5ccccc5)ccc(N5CCN(C)CC5)c4C3)nc2)c(C)c1 [Compound 30, 5-Benzyl-N-(5-(2,4-dimethylphenyl)pyridin-2-yl)-8-(4-methylpiperazin-1-yl)-3,4-dihydroisoquinoline-2(1H)-carboxamide]	2 (≈ 3.66 µM)	11 (≈ 20.2 µM)	94 to 97	1.9 (≈ 3.48 µM)	–	–	–	–	–
CN1CCN(c2ccc(F)c3c2CN(Cc2ccc(-c4ccc(Cl)cc4C(F)(F)F)cn2)CC3)CC1 [Compound 17, 2-((5-(4-Chloro-2-(trifluoromethyl)phenyl)pyridin-2-yl)methyl)-5-fluoro-8-(4-methylpiperazin-1-yl)-1,2,3,4-tetrahydroisoquinoline]	2.3 (≈ 4.43 µM)	11 (≈ 21.2 µM)	102 to 104	5.4 (≈ 10.4 µM)	–	–	–	–	–
CSc1ccc(N2CCN(C)CC2)c2c1CCN(C(=O)Nc1ccc(-c3cc(C(F)(F)F)cc(C(F)(F)F)c3)cn1)C2 [Compound 39, N-(5-(3,5-Bis(trifluoromethyl)phenyl)pyridin-2-yl)-8-(4-methylpiperazin-1-yl)-5-(methylthio)-3,4-dihydroisoquinoline-2(1H)-carboxamide]	3.6 (≈ 5.91 µM)	20 (≈ 32.8 µM)	–	4.0 (≈ 6.56 µM)	–	–	–	–	–
Cc1ccc(N2CCN(C)CC2)c2c1CCN(C(=O)Nc1ccc(-c3ccc(Cl)cc3Cl)cn1)C2 [Compound 25, N-(5-(2,4-Dichlorophenyl)pyridin-2-yl)-5-methyl-8-(4-methylpiperazin-1-yl)-3,4-dihydroisoquinoline-2(1H)-carboxamide]	1.95 (≈ 3.82 µM)	12 (≈ 23.5 µM)	–	1.99 (≈ 3.9 µM)	–	–	–	–	–
Cc1cc(Cl)ccc1-c1ccc(CN2CCc3c(C)ccc(N4CCCCC4)c3C2)nc1 [Compound 55, 2-((5-(4-Chloro-2-methylphenyl)pyridin-2-yl)methyl)-5-methyl-8-(piperidin-1-yl)-1,2,3,4-tetrahydroisoquinoline]	–	–	96 to 98	–	2.6 (≈ 5.83 µM)	> 32	–	–	–
CN1CCN(c2cccc3c2CN(C(=O)Cc2ccc(-c4cccc(Cl)c4)cn2)CC3)CC1 [Compound 45, 2-(5-(3-Chlorophenyl)pyridin-2-yl)-1-(8-(4-methylpiperazin-1-yl)-3,4-dihydroisoquinolin-2(1H)-yl)ethan-1-one]	15 (≈ 32.5 µM)	25 (≈ 54.2 µM)	–	21.7 (≈ 47.1 µM)	–	–	–	–	–
CN1CCN(c2cccc3c2CN(C(=O)Cc2ccc(-c4ccccc4)cn2)CC3)CC1 [Compound 44, 1-(8-(4-Methylpiperazin-1-yl)-3,4-dihydroisoquinolin-2(1H)-yl)-2-(5-phenylpyridin-2-yl)ethan-1-one]	> 32	> 32	–	>32	–	–	–	–	–
Cc1cc(Cl)ccc1-c1ccc(CN2CCc3c(C)ccc(N4CCNCC4)c3C2)nc1 [Compound 52, 2-((5-(4-Chloro-2-methylphenyl)pyridin-2-yl)methyl)-5-methyl-8-(piperazin-1-yl)-1,2,3,4-tetrahydroisoquinoline]	–	–	–	–	1.8 (≈ 4.03 µM)	12 (≈ 26.8 µM)	4.4 (≈ 9.84 µM)	–	–
Cc1cc(Cl)ccc1-c1ccc(CN2CCc3c(F)ccc(N4CCN(C)CC4)c3C2)nc1 [Compound 15, 2-((5-(4-Chloro-2-methylphenyl)pyridin-2-yl)methyl)-8-(4-methylpiperazin-1-yl)-5-fluoro-1,2,3,4-tetrahydroisoquinoline]	3.8 (≈ 8.17 µM)	24 (≈ 51.6 µM)	–	6.1 (≈ 13.1 µM)	–	–	–	–	–
2-((5-(4-Chlorophenyl)pyridin-2-yl)methyl)-8-(4-methoxypiperazin-1-yl)-5-methyl-1,2,3,4-tetrahydroisoquinoline [Compound 13]	–	–	–	6.1	–	–	–	1.8	12
Cc1cc(Cl)ccc1-c1ccc(NC(=O)N2CCc3c(Cc4ccccc4)ccc(N4CCN(C)CC4)c3C2)nc1 [Compound 29, 5-Benzyl-N-(5-(4-chloro-2-methylphenyl)pyridin-2-yl)-8-(4-methylpiperazin-1-yl)-3,4-dihydroisoquinoline-2(1H)-carboxamide]	1.8 (≈ 3.18 µM)	11 (≈ 19.4 µM)	–	1.5 (≈ 2.65 µM)	–	–	–	–	–
Cc1cc(Cl)ccc1-c1ccc(NC(=O)N2CCc3cccc(N4CCN(C)CC4)c3C2)nc1 [Compound 24, N-(5-(4-Chloro-2-methylphenyl)pyridin-2-yl)-8-(4-methylpiperazin-1-yl)-3,4-dihydroisoquinoline-2(1H)-carboxamide]	6.2 (≈ 13 µM)	11 (≈ 23.1 µM)	–	7.7 (≈ 16.2 µM)	–	–	–	–	–
2-((5-(2,4-Dichlorophenyl)pyridin-2-yl)methyl)-8-(4-methylpiperazin-1-yl)-1,2,3,4-tetrahydroisoquinoline [Compound 11]	–	–	–	11	–	–	–	3.6	–
CN1CCN(c2ccc(F)c3c2CN(C(=O)Nc2ccc(-c4ccc(Cl)c(C(F)(F)F)c4)cn2)CC3)CC1 [Compound 41, N-(5-(4-Chloro-3-(trifluoromethyl)phenyl)pyridin-2-yl)-5-fluoro-8-(4-methylpiperazin-1-yl)-3,4-dihydroisoquinoline-2(1H)-carboxamide]	1.4 (≈ 2.55 µM)	10 (≈ 18.2 µM)	–	2.9 (≈ 5.29 µM)	–	–	–	–	–
Cc1cc(Cl)ccc1-c1ccc(CN2CCc3c(C)ccc(N4CCOCC4)c3C2)nc1 [Compound 53, 4-(2-((5-(4-Chloro-2-methylphenyl)pyridin-2-yl)methyl)-5-methyl-1,2,3,4-tetrahydroisoquinolin-8-yl)morpholine]	–	–	–	–	7.8 (≈ 17.4 µM)	> 32	12 (≈ 26.8 µM)	–	–
COc1ccc(N2CCN(C)CC2)c2c1CCN(C(=O)Nc1ccc(-c3cc(C(F)(F)F)cc(C(F)(F)F)c3)cn1)C2 [Compound 38, N-(5-(3,5-Bis(trifluoromethyl)phenyl)pyridin-2-yl)-5-methoxy-8-(4-methylpiperazin-1-yl)-3,4-dihydroisoquinoline-2(1H)-carboxamide]	1.3 (≈ 2.19 µM)	10 (≈ 16.8 µM)	106 to 109	–	–	–	–	–	–
